These results are taken from the Deep4Chem optical property database.

A short description of the data set: solvent given as SMILES.

The compound `CCc1c(CC)c2n(c1C)[B-](F)(F)[N+]1=C(C)c3cc4c(cc3C1=C2)=[N+]1C(=Cc2c(CC)c(CC)c(C)n2[B-]1(F)F)C=4C` registered an emission maximum (in ClC(Cl)Cl) of 774 nm.

`CN1C(=CC2=C([O-])C(=Cc3sc4ccccc4[n+]3C)C2=C(C#N)C#N)C(C)(C)c2ccccc21` came in with an emission maximum (in ClC(Cl)Cl) of 708 nm.

`CC(C)(C)c1ccc(-c2nc3c4ccc(-c5ccc6ccc7cccc8ccc5c6c78)cc4c4cc(-c5ccc6ccc7cccc8ccc5c6c78)ccc4c3n2-c2ccc(C(C)(C)C)cc2)cc1`: the emission maximum reads like this: (in C1CCOC1) 442 nm; (in C1COCCO1) 432 nm; (in CC#N) 460 nm; (in CCCCCC) 428 nm; (in CCCCOCCCC) 427 nm; (in CCN(CC)CC) 428 nm. For the same compound, the emission maximum is listed as 440 nm (in CCOC(C)=O); 432 nm (in CCOCC); 459 nm (in CN(C)C=O); 433 nm (in Cc1ccccc1); 437 nm (in ClC=C(Cl)Cl); 450 nm (in ClCCl).

With `c1ccc(N(c2ccccc2)c2ccc(-c3ccc4c(c3)C3(c5ccccc5Sc5ccccc53)c3cc(-c5ccc(N(c6ccccc6)c6ccccc6)cc5)ccc3-4)cc2)cc1`, the emission maximum reads like this: (in ClCCl) 457 nm; (in c1cc(-n2c3ccccc3c3ccccc32)cc(-n2c3ccccc3c3ccccc32)c1) 438 nm.

On to `N#Cc1c(N2CCCCC2)cc(-c2ccc3ccc4cccc5ccc2c3c45)c2c1-c1ccccc1C2`, for which, for the setting “in C1CCOC1”, the emission maximum stood at 460 nm.

Consider `O=c1c2cc(F)c(O)cc2oc2cc(O)c(F)cc12`, for which the emission maximum (in CCO) is reported as 439 nm.

For the compound `O=c1oc2ccccc2cc1/C=C/c1ccc([N+](=O)[O-])cc1`, for the setting “in CC#N”, the emission maximum is 539 nm.

As to `Cc1cc(C)c(B(c2c(C)cc(C)cc2C)N2c3ccccc3C3(c4ccccc4-c4ccccc43)c3ccccc32)c(C)c1`, the emission maximum by setting is: (in C1CCCCC1) 527 nm; (in Cc1ccccc1) 538 nm; (in ClCCl) 560 nm.

`CC1=C(c2ccccc2)C(C)=[N+]2C1=C(c1c(-c3ccccn3)nc3ccccn13)c1c(C)cc(C)n1[B-]2(F)F` yielded an emission maximum (in ClCCl) of 566 nm.

`c1ccc(-n2c3ccccc3c3cc([Si](c4ccccc4)(c4ccccc4)c4ccc5c(c4)c4ccccc4n5-c4ccccc4)ccc32)cc1` came in with an emission maximum (in ClCCl) of 350 nm.

As for `CCCc1ccc(C#Cc2cc(C#Cc3ccc(CCC)cc3)c3ccc4c(C#Cc5ccc(CCC)cc5)cc(C#Cc5ccc(CCC)cc5)c5ccc2c3c54)cc1`, where the note is “in ClCCl”, the emission maximum was found to be 494 nm.

As for `COc1cc(OC)cc(C2=[O+][B-](F)(F)OC(c3ccc4ccccc4c3)=C2)c1`, the emission maximum is recorded as 521.21 nm (in CC#N); 521.21 nm (in CC(C)=O); 418.89 nm (in CCCCCC); 492.31 nm (in Cc1ccccc1); 560 nm (in ClCCl).

Take `COc1ccc(-c2cccc3ncc(-c4ccc(C#N)cc4)n23)cc1`: the emission maximum (in ClCCl) was determined as 447 nm.

With `COc1ccc(-c2nc(-c3ccccc3)c(-c3ccccc3)[nH]2)cc1`, where the note is “in CO”, the emission maximum is on record as 395 nm.

For the compound `CCCCCCCCc1ccc(-c2ccc(-c3cc(-c4ccc(-c5ccc(CCCCCCCC)s5)c5nsnc45)c4ccc5c(-c6ccc(-c7ccc(CCCCCCCC)s7)c7nsnc67)cc(-c6ccc(-c7ccc(CCCCCCCC)s7)c7nsnc67)c6ccc3c4c65)c3nsnc23)s1`, the emission maximum (in ClC(Cl)Cl) came out at 541 nm.

Regarding `N#Cc1ccc2[nH]ccc2c1`, the emission maximum was 349 nm (in C1CCOC1); 348 nm (in C1COCCO1); 362 nm (in CC#N); 362 nm (in CC(C)O); 364 nm (in CCO); 367 nm (in CO). The emission maximum runs as follows: (in CS(C)=O) 371 nm; (in O) 390 nm; (in OCC(F)(F)F) 374 nm.

For the setting “in C1CCOC1”, `CC(C)(C)/C=C1\C=C(c2ccccc2)C=C1c1ccccc1` came in with an emission maximum of 460 nm.

As for `CCN(CC)c1ccc(/C=N/CC/N=C/c2ccc(N(CC)CC)cc2O)c(O)c1`, the emission maximum runs as follows: (in CC#N) 415 nm; (in CN(C)C=O) 433 nm; (in ClCCl) 432 nm.

On to `C(#Cc1ccc(N(c2ccc(C#Cc3ccc(-c4cc(-c5ccccc5)nc(-c5ccccc5)c4)cc3)cc2)c2ccc(C#Cc3ccc(-c4cc(-c5ccccc5)nc(-c5ccccc5)c4)cc3)cc2)cc1)c1ccc(-c2cc(-c3ccccc3)nc(-c3ccccc3)c2)cc1`, for which the emission maximum (in C1CCOC1) is reported as 455 nm and the emission maximum (in Cc1ccccc1) amounted to 426 nm.

Turning to `O=P1(c2ccccc2)C2=C(c3ccccc31)C(c1ccccc1)(c1ccccc1)c1cc(N(c3ccccc3)c3ccccc3)ccc12` (configuration not stated), the emission maximum is, setting by setting: (in CC#N) 594 nm; (in CO) 608 nm; (in Cc1ccccc1) 522 nm.

Regarding `CCCC1=Cc2nc1ccc1[nH]c(cc1CCC)c1nc(c(N)cc3[nH]c2cc3CCC)C(CCC)=C1`, the emission maximum (in Cc1ccccc1) is listed as 729 nm.

In the case of `Clc1ccc(/C=C/c2ccc(-c3nc4c5cccnc5c5ncccc5c4[nH]3)cc2)cc1`, the emission maximum is, setting by setting: (in C1CCOC1) 463 nm; (in CC#N) 471 nm; (in CO) 473 nm; (in ClCCl) 467 nm.

`C1=[N+](c2ccccc2)[B-]2(Oc3c1ccc1c4c(ccc31)C=[N+](c1ccccc1)[B-]1(O4)c3ccccc3Oc3ccccc31)c1ccccc1Oc1ccccc12` gave an emission maximum (in Cc1ccccc1) of 605 nm and an emission maximum (in ClCCl) of 599 nm.

In turn, `CC(C)(C)c1ccc(-c2cc(-c3ccc(-c4cc(-c5ccc(C(C)(C)C)cc5)c(C(=O)NCc5ccccc5)s4)s3)sc2C(=O)NCc2ccccc2)cc1` displayed an emission maximum (in ClCCl) of 449 nm.

Regarding `N#CC(C#N)=Cc1ccc(-c2ccc(-c3nc4ccccc4s3)c(O)c2)o1`, the emission maximum is, setting by setting: (in CCO) 501 nm; (in ClCCl) 502 nm; (in O) 596 nm.

On to `Nc1nc2ccc(F)cc2[n+]([O-])n1`, for which the emission maximum runs as follows: (in CC#N) 491 nm; (in O) 526 nm.

For the compound `COC(=O)C1=C(C(=O)OC)C2(c3cc(Cl)ccc3-c3c(Cl)cc(Cl)cc32)C2(/C=C/c3ccccc3)c3cc(OC)c(OC)cc3CCN12` (configuration not stated), the emission maximum (in ClCCl) was determined as 487 nm.

Take `COc1ccc2c(c1)CCc1c(-c3ccccc3)c3n(c1-2)[B-](F)(F)[N+]1=c2ccc4ccccc4c2=C(c2ccccc2)C1=N3`: the emission maximum (in ClC(Cl)Cl) is listed as 730 nm.

In turn, `N#Cc1ccc(C#Cc2ccc(C#Cc3ccccc3C#N)cc2C#N)cc1` yielded an emission maximum (in ClC(Cl)Cl) of 370 nm.

As for `CC1(C)c2ccccc2N(c2ccc(-c3nnc(-c4ccc(-n5c6ccccc6c6ccccc65)cc4)o3)cc2)c2ccccc21`, the emission maximum was 460 nm (in Cc1ccccc1) and 479 nm (in O=P(c1ccccc1)(c1ccccc1)c1ccccc1Oc1ccccc1P(=O)(c1ccccc1)c1ccccc1).

`Cc1ccc(-c2c3nc(c(-c4ccc(C)cc4)c4ccc([nH]4)c(-c4ccc(C)cc4)c4nc(c(-c5ccc(C)cc5)c5ccc2[nH]5)C=C4N2CCOCC2)C=C3)cc1` had an emission maximum (in CS(C)=O) of 666 nm.

As to `Cc1cc(-c2ccccc2)nc2c1ccc1nc(-c3ccccc3)cn12`, the emission maximum reads like this: (in CC#N) 458 nm; (in CCCCOC(C)=O) 449 nm; (in CCOC(C)=O) 454 nm; (in CO) 450 nm; (in ClC(Cl)Cl) 448 nm; (in ClCCl) 450 nm. This compound returned an emission maximum (in c1ccccc1) of 451 nm.

In turn, `CCCC1=C(CCC)c2cccc3c2c(cc2nc4ccccc4nc23)O1` yielded an emission maximum (in ClCCl) of 563 nm.

On to `CC(C)[Si](C#Cc1c2ccccc2c(C#C[Si](C(C)C)(C(C)C)C(C)C)c2nc3ccccc3nc12)(C(C)C)C(C)C`, for which the emission maximum is, setting by setting: (in CCCCCC) 577 nm; (in ClCCl) 609 nm.

The compound `CCCCCCN1C(=O)c2cccc3c(-c4ccc(-c5cc(-c6ccc(C)cc6)nn5-c5ccccc5)s4)ccc(c23)C1=O` returned an emission maximum (in ClCCl) of 519 nm.

`O=S1(=O)C2=C(c3ccc(N(c4ccccc4)c4ccccc4)cc31)C1(C3=C(c4ccccc41)S(=O)(=O)c1cc(N(c4ccccc4)c4ccccc4)ccc13)c1ccccc12`: the emission maximum reads like this: (in C1CCOC1) 561 nm; (in CC#N) 598 nm; (in CCCCCC) 521 nm; (in Cc1ccccc1) 543 nm; (in ClCCl) 577 nm.

`CC(C)c1ccc2ccc3cccc4ccc1c2c34`: the emission maximum by setting is: (in CCCCCC) 376 nm; (in CO) 376 nm; (in ClCCl) 377 nm.

Under “in ClCCl”, `CC(C)(C)NC(=O)c1cc2ccccc2c2ccc3c4ccccc4c4ccccc4c3c12` displayed an emission maximum of 419 nm.

For `CC(C)(C)c1ccc(-c2c3c(c(-c4ccc(C(C)(C)C)cc4)c4cc5ccccc5cc24)Cc2c(c(-c4ccc(C(C)(C)C)cc4)c4cc5ccccc5cc4c2-c2ccc(C(C)(C)C)cc2)C3)cc1`, the emission maximum (in ClCCl) came to 409 nm.

The compound `c1ccc(N(c2ccccc2)c2ccc(-c3nc4c5ccccc5c5ccccc5c4n3-c3ccccc3)cc2)cc1` came in with an emission maximum (in ClCCl) of 468 nm.

Turning to `COc1ccc(C2=C(C)C3=C(c4c(-c5ccccn5)nc5ccccn45)c4c(C)c(-c5ccc(OC)cc5)c(C)n4[B-](F)(F)[N+]3=C2C)cc1`, under “in ClCCl”, the emission maximum was 608 nm.

`CCN(C)c1ccc(C2=C3C(C)=CC(/C=C/c4ccc(OCC(=O)OC)cc4)=[N+]3[B-](F)(F)n3c(C)cc(C)c32)cc1`: the emission maximum (in CO) was 581 nm.

Regarding `CCCCCCn1c2ccccc2c2cc(/C=C/c3cc(=O)oc4cc(C)ccc34)ccc21`, the emission maximum came out at 542 nm (in CS(C)=O) and 504 nm (in ClC(Cl)Cl).

Take `CC1(C)CC(/C=C/c2ccc(N3CCOCCOCCOCCOCC3)cc2)=CC(=C(C#N)C#N)C1`: the emission maximum is, setting by setting: (in C1CCOC1) 623 nm; (in CC#N) 640 nm; (in CCO) 641 nm; (in CCOC(C)=O) 618 nm; (in ClCCl) 625 nm; (in c1ccccc1) 596 nm.
